Test [1] deals with T1, aminopeptidase B (Rattus norvegicus, UniProt O09175).
T1 construct: an aminopeptidase B solution purified by using Sephadex G-100; from tissue; rat liver in the cited Hopsu et al. method (own knowledge)
T1 sequence (O09175 1-650): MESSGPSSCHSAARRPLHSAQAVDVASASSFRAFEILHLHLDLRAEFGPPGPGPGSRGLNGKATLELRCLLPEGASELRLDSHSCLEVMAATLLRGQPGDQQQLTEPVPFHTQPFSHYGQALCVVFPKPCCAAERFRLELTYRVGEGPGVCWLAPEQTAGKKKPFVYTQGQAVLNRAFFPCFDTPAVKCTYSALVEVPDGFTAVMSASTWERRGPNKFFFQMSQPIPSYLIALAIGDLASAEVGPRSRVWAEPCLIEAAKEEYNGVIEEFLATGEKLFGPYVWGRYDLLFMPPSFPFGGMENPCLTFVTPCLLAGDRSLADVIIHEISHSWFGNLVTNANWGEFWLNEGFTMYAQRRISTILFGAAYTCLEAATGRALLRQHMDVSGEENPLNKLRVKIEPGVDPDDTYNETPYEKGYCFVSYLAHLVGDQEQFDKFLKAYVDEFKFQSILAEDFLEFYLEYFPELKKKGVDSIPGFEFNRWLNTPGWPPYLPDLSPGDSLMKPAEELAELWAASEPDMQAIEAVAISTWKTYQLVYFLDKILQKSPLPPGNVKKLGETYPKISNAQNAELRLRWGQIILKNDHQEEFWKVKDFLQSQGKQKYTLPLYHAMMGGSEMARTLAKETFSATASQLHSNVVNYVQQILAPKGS
Kind of test: Inhibitory activity against aminopeptidase B (modified Hopsu et al. method, arginine-β-naphthylamide substrate). To be noted: pH 7.0, 37° C., 30-minute reaction. It is filed as biochemical. How it is done: A modified version of the Hopsu et al. method (V. K. Hopsu, K. K. Makinen and G. G. Glenner, Archives of Biochemistry and Biophysics 114, 557 (1966)) was used for determining the aminopeptidase B activity. A mixed solution (pH 7.0) prepared by adding 1.0 ml of 0.1 M tris-hydrochloride buffer and 0.7 ml of a solution containing the specimen to 0.3 ml of 0.1 mM arginine-β-naphthylamide was heated at 37° C. for 3 minutes and then added with 0.2 ml of an aminopeptidase B solution purified by using Sephadex G-100 (trademark for gelfiltrant composed of dextran derivative, manufactured by Pharmacia Fine Chemicals Inc.) according to the enzyme purification method of Hopsu et al. After 30-minute reaction at 37° C., 0.6 ml of 1.0 M acetate buffer (pH 4.2) containing Garnet GBC (o-aminoazotoluene diazonium salt) in concentration of 1.0 mg/ml and Tween 20 in concentration of 1.0% was added, and allowing the mixture to stand at room temperature for 15 minutes, absorbance (a) at 530 nm was measured. There was also measured absorbance (b) of the control using the buffer solution not containing the specimen. The aminopeptidase B inhibition percent was calculated from (b-a)/b×100.
Inhibition percentages at various specimen concentrations were measured according to the above-said testing method, and 50% inhibition (ID50) was induced therefrom.

For test [2], the system named is lymphocytes from the peripheral blood of healthy canines. Kind of test: Lymphocyte blastoid transformation with phytohemagglutinin (PHA), 3H-Thymidine incorporation. Format: cell-based, canines (Beagle, Male). To be noted: for 3H-Td.eta. incorporation (mean cpm ± SE): PHA + compound, canine lymphocytes, 72 hrs culture; for effect on lymphocyte blastoid formation with PHA (in words): summary of table 2. As to the method:
Lymphocytes were prepared asptically from the peripheral blood of healthy canines (Beagle, Male) by gradient centrifugation of ficollsodium metriazoate. The lymphocytes (1×10^6 cells/ml) were cultured in RPMI-1640 medium with 10% fetal calf serum, antibiotic (Kanamycin 60μg/ml) and 15μg of phytohemagglutinin(PHA) at 37° C. in a humidified atomosphere of 5% CO2 and 95% air. After an incubation for 48 hrs, 2μCi of ^3 H-Thymidine was added to each dish, and the culture was continued for further 24 hrs to determine DNA synthesis. DNA synthesis was measured as ^3 H-Thymidine incorporation into acid in soluble materials.
For orientation: Uptake of a labelled nucleoside into DNA is a usual measure of proliferation.

Test [3] has as its target T1, aminopeptidase B. As to conditions: prior art; cited from earlier work.
The subject of a further test is leucine aminopeptidase. As to conditions: prior art; cited from earlier work.
Another test concerns the target T2, Bleomycin hydrolase (Homo sapiens, UniProt Q13867).
T2 sequence (Q13867 1-455): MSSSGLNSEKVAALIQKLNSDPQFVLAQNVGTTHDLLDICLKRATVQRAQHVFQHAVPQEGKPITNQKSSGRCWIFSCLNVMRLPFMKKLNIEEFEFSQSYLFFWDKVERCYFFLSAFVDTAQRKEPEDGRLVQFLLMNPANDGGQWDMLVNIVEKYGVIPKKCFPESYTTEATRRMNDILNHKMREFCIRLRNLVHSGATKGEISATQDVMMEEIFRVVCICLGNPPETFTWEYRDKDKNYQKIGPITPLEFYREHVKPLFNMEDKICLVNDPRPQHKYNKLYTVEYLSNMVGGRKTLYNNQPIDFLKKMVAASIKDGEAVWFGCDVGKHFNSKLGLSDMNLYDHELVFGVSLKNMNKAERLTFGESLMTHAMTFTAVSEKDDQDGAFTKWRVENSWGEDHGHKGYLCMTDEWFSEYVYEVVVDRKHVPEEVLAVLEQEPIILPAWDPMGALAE
As to conditions: prior art; cited from earlier work.

Each structure is given as a SMILES string.

Here are results for 5 molecules from patent US4185156A, “Peptides and acid addition salts thereof” (Zaidan Hojin Biseibutsu Kagaku Kenkyu Kai, priority 1977, dated 1980).

With `CC(=O)O.CC(=O)O.Cc1ccc(CC(N)C(O)C(=O)NC(CCCN=C(N)N)C(=O)O)cc1` (racemic) [Example 3, (2RS, 3RS)-3-amino-2-hydroxy-4-p-methylphenylbutanoyl-(S)-arginine diacetate], the “ID50 (50% inhibition of aminopeptidase B)” value at aminopeptidase B [1] is listed as 0.013 μ g/ml.
For `Cl.Cl.N=C(N)NCCC[C@H](NC(=O)[C@H](O)[C@H](N)Cc1ccccc1Cl)C(=O)O` (racemic) [Example 4, (2RS, 3RS)-3-amino-2-hydroxy-4-o-chlorophenylbutanoyl-(S)-arginine dihydrochloride], at aminopeptidase B [1], the “ID50 (50% inhibition of aminopeptidase B)” value turned out to be 0.14 μ g/ml.
With `CC(C)C[C@H](NC(=O)[C@@H](O)[C@H](N)Cc1ccccc1)C(=O)O` [Bestatin, (2S, 3R)-3-amino-2-hydroxy-4-phenylbutanoyl-(S)-leucine, reference compound], the IC50 on aminopeptidase B [1] (read-out: ID50 (50% inhibition of aminopeptidase B) (converted)) was 324 nM. Also, the “3H-Td.eta. incorporation (mean cpm ± SE)” value in test [2] (dose 0.1 μg) came out at 19450 ± 189 cpm; in test [2] (dose 1.0 μg), 16173 ± 631 cpm; in test [2] (dose 10.0 μg), 18683 ± 71 cpm. Further, the “effect on lymphocyte blastoid formation with PHA (in words)” value (“effect on lymphocyte blastoid formation” below) in test [2] was “enhance the lymphocyte blastoid formation with PHA”. Besides, at aminopeptidase B [3], the “inhibitory activity against aminopeptidase B (in words)” value is “strong inhibitory activity”. Further, the “inhibitory activity against leucine aminopeptidase (in words)” value with leucine aminopeptidase is given as “strong inhibitory activity”. Also, the “inhibitory activity against Bleomycin hydrolase (in words)” value at Bleomycin hydrolase was “strong inhibitory activity”.
For the molecule `Cl.N=C(N)NCCC[C@H](NC(=O)[C@@H](O)[C@H](N)Cc1ccccc1)C(=O)O` [Example 1, (2S, 3R)-3-amino-2-hydroxy-4-phenylbutanoyl-(S)-arginine hydrochloride], the “ID50 (50% inhibition of aminopeptidase B)” value on aminopeptidase B [1] is listed as 0.03 μ g/ml. Moreover, the “3H-Td.eta. incorporation (mean cpm ± SE)” value is given as 17278 ± 400 cpm in test [2] (dose 0.1 μg), 19940 ± 1412 cpm in test [2] (dose 1.0 μg) and 19050 ± 1988 cpm in test [2] (dose 10.0 μg). In addition, the “effect on lymphocyte blastoid formation” value in test [2] is listed as “enhance the lymphocyte blastoid formation with PHA”.
`N=C(N)NCCC[C@H](NC(=O)[C@@H](O)[C@H](N)Cc1ccc(O)cc1)C(=O)O` [Example 2, (2S, 3R)-3-amino-2-hydroxy-4-p-hydroxyphenylbutanoyl-(S)-arginine diacetate]: the “ID50 (50% inhibition of aminopeptidase B)” value at aminopeptidase B [1] came out at 0.005 μ g/ml. Further, the “3H-Td.eta. incorporation (mean cpm ± SE)” value in test [2] (dose 0.1 μg) was found to be 23113 ± 1236 cpm; in test [2] (dose 1.0 μg), 21357 ± 578 cpm; in test [2] (dose 10.0 μg), 20397 ± 304 cpm. The “effect on lymphocyte blastoid formation” value in test [2] was “enhance the lymphocyte blastoid formation with PHA”.
